Experimental data reported in US10166226B2, “CGRP receptor antagonists” (Heptares Therapeutics Limited, priority 2015, dated 2019).
In brackets after ≈: the same amount, converted by molar mass. Read-outs that look alike come from different tables or passages of the source.

Key:
[1] = Thermodynamic solubility profiling; format: physicochemical; settings: aqueous buffer, thermodynamic from solid
Protocol: A 50 mM DMSO stock solution of test compound was prepared, and from this, a working solution of 1 mM was prepared by dilution with DMSO. The UV absorbance of working solution was scanned from 220 nm to 1000 nm to identify the wavelength maxima of test compound. The 1 mM working solution was then serially diluted in DMSO to different concentrations to determine linearity/calibration curve. […] The resulting solution was then kept on a RotoSpin shaker at 50 rpm for 24 h at rt before the solution was filtered using 0.45 micron PVDF injector filters in order to remove the insoluble fraction of the compound. Subsequently, 150 uL of the filtrate is taken for quantification using a UV spectrophotometer, acquiring the optical density of standard solutions and test compound at the same wavelength maxima. From the optical density of test compound the thermodynamic solubility is calculated using the linearity/calibration curve and expressed as micromolar (μM). Solubility profiles of certain compounds of the invention are detailed in Table 6.

[2] = Pharmacokinetic profiling in rat; format: in vivo, male Sprague Dawley rats; settings: male, Sprague Dawley, plasma
Protocol: Prior to IN dosing rats were anaesthetised with an intramuscular dose of 25-30 mg/kg ketamine cocktail (ketamine, xylazine hydrochloride and acepromazine maleate in saline) and the dose is introduced over 20-30 s via a polyethylene PE-10 tube inserted approximately 5 mm into the nasal cavity of the rat.
(§1) Following dosing by the routes above blood samples were taken at several time points (typically pre-dose, 0.083, 0.25, 0.5 1, 2, 4, 8 and 24 h) via serial tail vein bleeds (rat) or cephalic or saphenous vein (monkey) from the animal and centrifuged to separate plasma for analysis by LC/MS/MS assay. WinNonlin v6.2 statistics software (Pharsight Corporation, California, USA) was used to generate pharmacokinetic parameters using the non-compartmental model.

[3] = target: Human CGRP receptors (consisting of CRLR and RAMP1) (Homo sapiens (Human), UniProt O60894+Q16602); assay: Radioligand binding assay (3H-telcagepant displacement); settings: Sf21 cell membranes, 0.5 nM 3H-telcagepant, Ki by Cheng-Prussoff
Sequence of Human CGRP receptors (consisting of CRLR and RAMP1) (Q16602 23-461): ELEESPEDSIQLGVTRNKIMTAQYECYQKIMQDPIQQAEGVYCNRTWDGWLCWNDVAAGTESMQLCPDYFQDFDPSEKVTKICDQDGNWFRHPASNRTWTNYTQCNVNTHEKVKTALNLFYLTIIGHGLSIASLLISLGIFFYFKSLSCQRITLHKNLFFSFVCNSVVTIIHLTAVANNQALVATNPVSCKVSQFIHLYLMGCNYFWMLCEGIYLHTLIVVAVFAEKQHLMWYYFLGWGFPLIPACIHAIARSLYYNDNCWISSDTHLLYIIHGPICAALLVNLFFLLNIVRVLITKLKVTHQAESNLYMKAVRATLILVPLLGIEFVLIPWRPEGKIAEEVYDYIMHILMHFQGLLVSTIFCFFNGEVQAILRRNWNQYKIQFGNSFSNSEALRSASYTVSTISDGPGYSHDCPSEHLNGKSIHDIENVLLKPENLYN
Sequence of Human CGRP receptors (consisting of CRLR and RAMP1) (O60894 27-148): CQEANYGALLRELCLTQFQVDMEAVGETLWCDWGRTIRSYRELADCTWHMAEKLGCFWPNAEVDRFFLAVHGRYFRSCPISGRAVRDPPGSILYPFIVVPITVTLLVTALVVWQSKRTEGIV
Protocol: Human Calcitonin Receptor Like Receptor (CRLR) and human RAMP1 were cloned into Invitrogen's (ThermoFisher Scientific, UK) pFastBac dual expression vector. Transposition of CRLR/RAMP1 DNA was performed using Invitrogen's Bac-to-Bac Baculovirus Expression Systems. P0 baculovirus was generated by transfecting SF9 cells with bacmid DNA using Cellfectin® II transfection reagent (ThermoFisher Scientific, UK, catalog number 10362-100). Following P0 generation P1 virus was then generated ready for large scale infection and membrane preparation. Sf21 cells were grown in expression medium ESF921 (Expression Systems, USA, catalog number 96-001-01) supplemented with 10% heat-inactivated FBS and 1% Pen/Strep and were infected at a cell density of 2.5×10^6 cells/mL and an MOI of 2. Expression was carried out over 48 h in a shaking incubator set at 27° C. The cell culture was centrifuged at 2,500 rcf for 10 min at 4° C. The pellets were resuspended in cold PBS supplemented with Roche's Complete EDTA-free protease inhibitor cocktail tablets (Roche Applied Sciences, catalog number 05056489001), 1 mM PMSF and 1 mM EDTA. The resuspended cell paste was then centrifuged at 3,273 rcf for 12 min at 4° C. The supernatant was discarded and the pellet frozen at −80° C. The cell pellet from a 4 L culture was resuspended in buffer containing 50 mM Hepes pH 7.5, 150 mM NaCl, 8 Roche EDTA-free protease inhibitor cocktail tablets and 1 mM PMSF. The suspension was left stirring at rt for 1 h and then homogenised for 90 s at 9,500 rpm using a VDI 25 (VWR, USA) homogeniser. The cells were then lysed using a Microfluidizer processor M-110L Pneumatic (Microfluidics, USA). After lysis, the mixture was homogenised for 90 s at 9,500 rpm and then centrifuged at 335 rcf for 10 min. The supernatant was then further ultra-centrifuged at 42,000 rpm for 90 min. After ultra-centrifugation, the supernatant was discarded and the pellet was resuspended in 50 mL (25 mL for each 2 L culture) of buffer containing 50 mM Hepes pH 7.5, 150 mM NaCl, 3 Roche EDTA-free protease inhibitor cocktail tablets and 1 mM PMSF. The suspension was then homogenised for 90 s at 9,500 rpm. The resulting membranes were then stored at −80° C.
Human CGRP receptors (consisting of CRLR and RAMP1) expressed in insect Sf21 cell membrane homogenates were re-suspended in the binding buffer (10 mM HEPES, pH 7.4, 5 mM MgCl2, 0.2% BSA) to a final assay concentration of […]. Saturation isotherms were determined by the addition of various concentrations of ^3H-telcagepant (Ho et al, The Lancet, 2008, 372, 2115) (in a total reaction volume of 250 μL) for 60 min at room temperature. At the end of the incubation, membranes were filtered onto a unifilter, a 96-well white microplate with bonded GF/B filter pre-incubated with 0.5% PEI, with a Tomtec cell harvester and washed 5 times with distilled water. Non-specific binding (NSB) was measured in the presence of 10 nM MK-3207 hydrochloride (CAS No. 957116-20-0). Radioactivity on the filter was counted (1 min) on a microbeta counter after addition of 50 μL of scintillation fluid.

[4] = target: human CGRP receptor (Homo sapiens (Human), UniProt O60894+Q16602); assay: cAMP functional assay (HTRF) in SK-N-MC cells; format: cell-based; settings: read-out: pKb average (converted)
Sequence of human CGRP receptor (Q16602 23-461): as the sequence (Q16602 23-461) above
Sequence of human CGRP receptor (O60894 27-148): as the sequence (O60894 27-148) above
Protocol: cAMP production following receptor activation was determined using the Homogeneous Time-Resolved Fluorescence (HTRF) cAMP dynamic-2 assay (Cisbio, France). The human neuroblastoma cell line SK-N-MC endogenously expressing the human CGRP receptor was seeded at a density of 12,500 cells/well in solid walled 96 well half area plates (Costar, Catalog Number 3688, Corning Life Sciences, Germany). After 16 h incubation at 37° C. media was removed and cells were incubated at 37° C. for 30 min in serum free media containing 500 μM IBMX (Tocris, Abingdon, UK, Catalog Number 2845) and increasing concentrations of test antagonist. Following this cells were challenged with an EC80 concentration of human CGRP (0.3 nM) for a further 30 min at 37° C. and then cAMP production was determined as manufacturer's instructions before plates were read on a PheraStar fluorescence plate reader (BMG LabTech, Germany). IC50 values were derived from the inhibition curve. The pIC50 values (where pIC50=−log10 IC50) were converted to a functional pKb value using a modified Cheng-Prussoff equation where Kd=agonist EC50 and L hot=agonist challenge concentration. The pKb values of certain compounds of the invention are detailed in Table 3.

[5] = Pharmacokinetic profiling in cynomolgus monkey; format: in vivo, male Cynomolgus Monkeys; settings: male, plasma, 0.5 mg/kg, acidified saline; for clearance: cynomolgus monkey iv; for bioavailability: cynomolgus monkey sc
Protocol: as §1

[6] = PBS buffer pH 7.4, 24 h at rt, read-out: Thermodynamic solubility pH 7.4
[7] = Sodium Phosphate Buffer pH 6.0, 24 h at rt, read-out: Thermodynamic solubility pH 6

solubility thermodynamic at 24 h [1, 6] | solubility thermodynamic at 24 h [1, 7] | bioavailability ([2]; inhaled or intranasal) | bioavailability ([2]; sc) | pKi average [3] | Kb [4] | clearance [5] | bioavailability [5] | Structure (SMILES)
431 µM (≈ 375 µg/mL) | 150 µM (≈ 130 µg/mL) | 8% | 48% | – | – | – | – | NCCCC[C@H](NC(=O)[C@@H](Cc1cc(Br)c(O)c(Br)c1)NC(=O)N1CCC(N2Cc3ccccc3NC2=O)CC1)C(=O)N1CCN(c2ccncc2)CC1 [olcegepant, reference compound]
239 µM (≈ 173 µg/mL) | 1540 µM (≈ 1110 µg/mL) | – | – | 9.9 | 0.631 nM | – | – | Cc1cc(C[C@@H](NC(=O)N2CCC(c3cc4ccc(F)cc4[nH]c3=O)CC2)C(=O)N2CCC(N3CCC(c4nncn4C)CC3)CC2)cc2cn[nH]c12 [Example 5, 4-(7-fluoro-2-oxo-1,2-dihydroquinolin-3-yl)-N-{(2R)-3-(7-methyl-1H-indazol-5-yl)-1-[4-(4-methyl-4H-1,2,4-triazol-3-yl)-1,4′-bipiperidin-1′-yl]-1-oxopropan-2-yl}piperidine-1-carboxamide]
2 µM (≈ 1.46 µg/mL) | 1250 µM (≈ 914 µg/mL) | – | – | 9.8 | 0.398 nM | – | – | CCCn1ccnc1C1CCN(C2CCN(C(=O)[C@@H](Cc3cc(C)c4[nH]ncc4c3)NC(=O)N3CCC(c4cc5ccccc5[nH]c4=O)CC3)CC2)CC1 [Example 3, N-{(2R)-3-(7-methyl-1H-indazol-5-yl)-1-oxo-1-[4-(1-propyl-1H-imidazol-2-yl)-1,4′-bipiperidin-1′-yl]propan-2-yl}-4-(2-oxo-1,2-dihydroquinolin-3-yl)piperidine-1-carboxamide]
359 µM (≈ 253 µg/mL) | 1220 µM (≈ 858 µg/mL) | – | – | 10.0 | 0.316 nM | – | – | Cc1nnc(C2CCN(C3CCN(C(=O)[C@@H](Cc4cc(C)c5[nH]ncc5c4)NC(=O)N4CCC(c5cc6ccccc6[nH]c5=O)CC4)CC3)CC2)[nH]1 [Example 8, N-{(2R)-3-(7-methyl-1H-indazol-5-yl)-1-[4-(5-methyl-4H-1,2,4-triazol-3-yl)-1,4′-bipiperidin-1′-yl]-1-oxopropan-2-yl}-4-(2-oxo-1,2-dihydroquinolin-3-yl)piperidine-1-carboxamide]
18 µM (≈ 12.7 µg/mL) | 2040 µM (≈ 1440 µg/mL) | 25% | 69% | 10.1 | 0.316 nM | 24 mL/min/kg | 100% | Cc1nc[nH]c1C1CCN(C2CCN(C(=O)[C@@H](Cc3cc(C)c4[nH]ncc4c3)NC(=O)N3CCC(c4cc5ccccc5[nH]c4=O)CC3)CC2)CC1 [Example 2, N-[(2R)-1-[4-(4-methyl-1H-imidazol-5-yl)-1,4′-bipiperidin-1′-yl]-3-(7-methyl-1H-indazol-5-yl)-1-oxopropan-2-yl]-4-(2-oxo-1,2-dihydroquinolin-3-yl)piperidine-1-carboxamide]
– | – | – | – | 10.3 | 0.398 nM | – | – | Cc1cc(C[C@@H](NC(=O)N2CCC(c3cc4ccccc4[nH]c3=O)CC2)C(=O)N2CCC(N3CCC(c4nnc(C(=O)O)[nH]4)CC3)CC2)cc2cn[nH]c12 [Example 9, 5-{1′-[(2R)-3-(7-methyl-1H-indazol-5-yl)-2-({[4-(2-oxo-1,2-dihydroquinolin-3-yl)piperidin-1-yl]carbonyl}amino)propanoyl]-1,4′-bipiperidin-4-yl}-4H-1,2,4-triazole-3-carboxylic Acid]
32 µM (≈ 22.6 µg/mL) | 1590 µM (≈ 1120 µg/mL) | 27% | 82% | 10.0 | 0.631 nM | 15 mL/min/kg | 100% | Cc1cc(C[C@@H](NC(=O)N2CCC(c3cc4ccccc4[nH]c3=O)CC2)C(=O)N2CCC(N3CCC(c4nncn4C)CC3)CC2)cc2cn[nH]c12 [Example 4, N-{(2R)-3-(7-methyl-1H-indazol-5-yl)-1-[4-(4-methyl-4H-1,2,4-triazol-3-yl)-1,4′-bipiperidin-1′-yl]-1-oxopropan-2-yl}-4-(2-oxo-1,2-dihydroquinolin-3-yl)piperidine-1-carboxamide]
– | – | – | – | 10.3 | 0.2 nM | – | – | Cc1cc(C[C@@H](NC(=O)N2CCC(c3cc4ccccc4[nH]c3=O)CC2)C(=O)N2CCC(N3CCC(c4ncc[nH]4)CC3)CC2)cc2cn[nH]c12 [Example 1, N-[(2R)-1-[4-(1H-imidazol-2-yl)-1,4′-bipiperidin-1′-yl]-3-(7-methyl-1H-indazol-5-yl)-1-oxopropan-2-yl]-4-(2-oxo-1,2-dihydroquinolin-3-yl)piperidine-1-carboxamide]
– | – | – | – | 10.2 | 0.2 nM | – | – | CCOC(=O)c1nnc(C2CCN(C3CCN(C(=O)[C@@H](Cc4cc(C)c5[nH]ncc5c4)NC(=O)N4CCC(c5cc6ccccc6[nH]c5=O)CC4)CC3)CC2)[nH]1 [Example 6, ethyl 5-{1′-[(2R)-3-(7-methyl-1H-indazol-5-yl)-2-({[4-(2-oxo-1,2-dihydroquinolin-3-yl)piperidin-1-yl]carbonyl}amino)propanoyl]-1,4′-bipiperidin-4-yl}-4H-1,2,4-triazole-3-carboxylate]
342 µM (≈ 236 µg/mL) | 785 µM (≈ 542 µg/mL) | – | – | 9.8 | 0.316 nM | – | – | Cc1cc(C[C@@H](NC(=O)N2CCC(c3cc4ccccc4[nH]c3=O)CC2)C(=O)N2CCC(N3CCC(c4nnc[nH]4)CC3)CC2)cc2cn[nH]c12 [Example 7, N-{(2R)-3-(7-methyl-1H-indazol-5-yl)-1-oxo-1-[4-(4H-1,2,4-triazol-3-yl)-1,4′-bipiperidin-1′-yl]propan-2-yl}-4-(2-oxo-1,2-dihydroquinolin-3-yl)piperidine-1-carboxamide]
